These are literature values, as cited in patent US7368458B2, “Bicyclic heterocycles as cannabinoid receptor modulators” (Bristol-Myers Squibb Company, priority 2005, dated 2008).

The conditions of series [1]: chronic administration for two weeks.
For series [2] the following is noted: human subjects, 16 week trial period.

Where two headings read alike, the source gives them in different places.

On to `Cc1c(C(=O)NN2CCCCC2)nn(-c2ccc(Cl)cc2Cl)c1-c1ccc(I)cc1` [AM-251], for which the body weight result in series [1] is “substantial body weight reduction”.
As for `Cc1c(C(=O)NN2CCCCC2)nn(-c2ccc(Cl)cc2Cl)c1-c1ccc(Cl)cc1` [SR-141716], in series [2], the body weight result was “dose-dependently reduced body weight”.
